Data reported in the kinase profiling compilation of Christmann-Franck et al. (2016).

Tests used:
Test in all cases: KINOMEscan competition binding
Conditions in all cases: compound 10.0 µM
[1] = system: ABL1 (human), P00519 [Y253F]
ABL2 (human) = ABL2 (human) (UniProt P42684)
CAMK1G (human) = CAMK1G (human) (UniProt Q96NX5)
CDC2L2 (human) = CDC2L2 (human) (UniProt Q9UQ88)
CHUK (human) = CHUK (human) (UniProt O15111)
DAPK1 (human) = DAPK1 (human) (UniProt P53355)
DCLK3 (human) = DCLK3 (human) (UniProt Q9C098)
[2] = system: EGFR (human), P00533 [L861Q]
[3] = system: EGFR (human), P00533 [T790M]
ERBB3 (human) = ERBB3 (human) (UniProt P21860)
ERN1 (human) = ERN1 (human) (UniProt O75460)
FGFR1 (human) = FGFR1 (human) (UniProt P11362)
GSK3A (human) = GSK3A (human) (UniProt P49840)
[4] = system: KIT (human), P10721 [D816H]
MAP2K1 (human) = MAP2K1 (human) (UniProt Q02750)
MAP3K2 (human) = MAP3K2 (human) (UniProt Q9Y2U5)
MAPK4 (human) = MAPK4 (human) (UniProt P31152)
MARK2 (human) = MARK2 (human) (UniProt Q7KZI7)
MST1R (human) = MST1R (human) (UniProt Q04912)
NEK2 (human) = NEK2 (human) (UniProt P51955)
NEK7 (human) = NEK7 (human) (UniProt Q8TDX7)
OXSR1 (human) = OXSR1 (human) (UniProt O95747)
PIM1 (human) = PIM1 (human) (UniProt P11309)
PRKCD (human) = PRKCD (human) (UniProt Q05655)
PRKD3 (human) = PRKD3 (human) (UniProt O94806)
PRKG2 (human) = PRKG2 (human) (UniProt Q13237)
PRPF4B (human) = PRPF4B (human) (UniProt Q13523)
PTK2 (human) = PTK2 (human) (UniProt Q05397)
PTK6 (human) = PTK6 (human) (UniProt Q13882)
ROCK1 (human) = ROCK1 (human) (UniProt Q13464)
RPS6KA1 KD2 (human) = RPS6KA1 KD2 (human) (UniProt Q15418)
RPS6KA4 KD1 (human) = RPS6KA4 KD1 (human) (UniProt O75676)
RPS6KB1 (human) = RPS6KB1 (human) (UniProt P23443)
SLK (human) = SLK (human) (UniProt Q9H2G2)
SRC (human) = SRC (human) (UniProt P12931)
STK4 (human) = STK4 (human) (UniProt Q13043)
TNIK (human) = TNIK (human) (UniProt Q9UKE5)
TXK (human) = TXK (human) (UniProt P42681)
TYRO3 (human) = TYRO3 (human) (UniProt Q06418)
ULK2 (human) = ULK2 (human) (UniProt Q8IYT8)
YES1 (human) = YES1 (human) (UniProt P07947)

Chain of OXSR1 (human) (O95747 whole entry, looked up): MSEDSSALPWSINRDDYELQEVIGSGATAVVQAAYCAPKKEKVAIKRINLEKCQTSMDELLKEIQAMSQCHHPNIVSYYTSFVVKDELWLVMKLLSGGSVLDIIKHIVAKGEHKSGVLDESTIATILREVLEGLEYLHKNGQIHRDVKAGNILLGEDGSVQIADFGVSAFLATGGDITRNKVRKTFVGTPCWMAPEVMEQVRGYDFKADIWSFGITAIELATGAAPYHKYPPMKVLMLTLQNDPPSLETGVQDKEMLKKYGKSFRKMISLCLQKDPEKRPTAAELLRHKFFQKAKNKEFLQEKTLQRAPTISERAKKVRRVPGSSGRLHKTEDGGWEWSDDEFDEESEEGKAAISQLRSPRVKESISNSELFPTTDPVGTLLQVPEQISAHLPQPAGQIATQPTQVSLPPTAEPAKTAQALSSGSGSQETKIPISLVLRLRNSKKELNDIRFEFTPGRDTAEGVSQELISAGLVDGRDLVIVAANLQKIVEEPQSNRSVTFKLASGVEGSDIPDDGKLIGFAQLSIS
Chain of NEK2 (human) (P51955 whole entry, looked up): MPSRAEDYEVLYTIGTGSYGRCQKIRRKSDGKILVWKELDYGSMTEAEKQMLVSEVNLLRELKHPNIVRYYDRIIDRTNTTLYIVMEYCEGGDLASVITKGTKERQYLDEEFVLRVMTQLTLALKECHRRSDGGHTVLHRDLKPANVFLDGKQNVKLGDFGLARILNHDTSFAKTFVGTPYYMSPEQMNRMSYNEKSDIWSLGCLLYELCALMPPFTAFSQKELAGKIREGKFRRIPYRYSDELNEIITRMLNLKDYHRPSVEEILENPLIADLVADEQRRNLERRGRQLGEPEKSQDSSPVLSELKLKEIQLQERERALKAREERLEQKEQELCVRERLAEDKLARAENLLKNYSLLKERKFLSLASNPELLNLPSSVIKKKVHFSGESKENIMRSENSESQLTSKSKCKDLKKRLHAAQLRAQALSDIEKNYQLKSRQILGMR
Chain of STK4 (human) (Q13043 whole entry, looked up): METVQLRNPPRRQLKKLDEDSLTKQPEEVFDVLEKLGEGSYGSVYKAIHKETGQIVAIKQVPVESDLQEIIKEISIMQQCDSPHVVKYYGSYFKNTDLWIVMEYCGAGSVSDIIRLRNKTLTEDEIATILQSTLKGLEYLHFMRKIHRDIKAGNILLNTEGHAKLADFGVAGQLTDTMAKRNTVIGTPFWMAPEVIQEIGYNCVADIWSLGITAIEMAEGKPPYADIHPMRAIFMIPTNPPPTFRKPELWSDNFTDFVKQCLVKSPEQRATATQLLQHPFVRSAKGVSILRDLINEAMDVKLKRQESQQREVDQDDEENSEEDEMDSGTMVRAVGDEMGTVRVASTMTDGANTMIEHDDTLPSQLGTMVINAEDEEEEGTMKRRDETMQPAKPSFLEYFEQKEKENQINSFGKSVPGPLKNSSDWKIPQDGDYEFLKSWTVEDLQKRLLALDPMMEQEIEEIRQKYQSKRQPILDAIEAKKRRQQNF
Chain of ERN1 (human) (O75460 whole entry, looked up): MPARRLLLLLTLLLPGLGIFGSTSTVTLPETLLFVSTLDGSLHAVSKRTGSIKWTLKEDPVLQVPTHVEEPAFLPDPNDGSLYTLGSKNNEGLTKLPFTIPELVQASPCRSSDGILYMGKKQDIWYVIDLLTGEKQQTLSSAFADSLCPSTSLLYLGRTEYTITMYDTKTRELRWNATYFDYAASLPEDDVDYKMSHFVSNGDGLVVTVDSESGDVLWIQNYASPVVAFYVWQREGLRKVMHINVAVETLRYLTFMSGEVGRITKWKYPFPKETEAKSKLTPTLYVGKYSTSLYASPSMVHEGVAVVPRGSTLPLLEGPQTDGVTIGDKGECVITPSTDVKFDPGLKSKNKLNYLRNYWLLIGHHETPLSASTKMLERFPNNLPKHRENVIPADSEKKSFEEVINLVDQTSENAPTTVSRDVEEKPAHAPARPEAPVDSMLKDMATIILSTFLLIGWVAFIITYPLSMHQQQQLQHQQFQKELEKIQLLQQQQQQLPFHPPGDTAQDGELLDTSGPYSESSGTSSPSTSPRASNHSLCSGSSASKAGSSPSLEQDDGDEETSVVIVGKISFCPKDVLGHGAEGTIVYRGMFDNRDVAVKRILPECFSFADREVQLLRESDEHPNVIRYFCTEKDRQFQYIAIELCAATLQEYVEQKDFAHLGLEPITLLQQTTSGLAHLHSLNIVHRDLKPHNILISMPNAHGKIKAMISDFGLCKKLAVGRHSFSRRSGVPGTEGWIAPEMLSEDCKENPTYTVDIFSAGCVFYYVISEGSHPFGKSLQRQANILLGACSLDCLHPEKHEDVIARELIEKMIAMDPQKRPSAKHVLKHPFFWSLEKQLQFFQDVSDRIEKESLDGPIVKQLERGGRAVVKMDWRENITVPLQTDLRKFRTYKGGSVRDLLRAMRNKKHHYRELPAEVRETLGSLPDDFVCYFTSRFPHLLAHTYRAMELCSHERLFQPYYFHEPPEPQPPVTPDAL
Chain of MAPK4 (human) (P31152 whole entry, looked up): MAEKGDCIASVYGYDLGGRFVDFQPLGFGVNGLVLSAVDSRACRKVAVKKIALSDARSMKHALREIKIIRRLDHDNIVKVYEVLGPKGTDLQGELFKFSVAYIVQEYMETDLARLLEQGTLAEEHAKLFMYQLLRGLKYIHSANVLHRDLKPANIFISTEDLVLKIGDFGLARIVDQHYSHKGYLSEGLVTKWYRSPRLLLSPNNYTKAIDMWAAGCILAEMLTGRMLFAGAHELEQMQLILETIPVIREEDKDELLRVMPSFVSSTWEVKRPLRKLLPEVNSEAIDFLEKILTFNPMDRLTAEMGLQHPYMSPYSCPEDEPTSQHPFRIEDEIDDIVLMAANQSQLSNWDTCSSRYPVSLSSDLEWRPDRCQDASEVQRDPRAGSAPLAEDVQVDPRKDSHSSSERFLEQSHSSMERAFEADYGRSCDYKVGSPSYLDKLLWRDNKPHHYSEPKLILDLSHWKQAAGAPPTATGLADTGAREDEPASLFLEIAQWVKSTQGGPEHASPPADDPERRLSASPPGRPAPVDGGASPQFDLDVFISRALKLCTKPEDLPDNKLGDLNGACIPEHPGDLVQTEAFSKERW
Chain of RPS6KB1 (human) (P23443 whole entry, looked up): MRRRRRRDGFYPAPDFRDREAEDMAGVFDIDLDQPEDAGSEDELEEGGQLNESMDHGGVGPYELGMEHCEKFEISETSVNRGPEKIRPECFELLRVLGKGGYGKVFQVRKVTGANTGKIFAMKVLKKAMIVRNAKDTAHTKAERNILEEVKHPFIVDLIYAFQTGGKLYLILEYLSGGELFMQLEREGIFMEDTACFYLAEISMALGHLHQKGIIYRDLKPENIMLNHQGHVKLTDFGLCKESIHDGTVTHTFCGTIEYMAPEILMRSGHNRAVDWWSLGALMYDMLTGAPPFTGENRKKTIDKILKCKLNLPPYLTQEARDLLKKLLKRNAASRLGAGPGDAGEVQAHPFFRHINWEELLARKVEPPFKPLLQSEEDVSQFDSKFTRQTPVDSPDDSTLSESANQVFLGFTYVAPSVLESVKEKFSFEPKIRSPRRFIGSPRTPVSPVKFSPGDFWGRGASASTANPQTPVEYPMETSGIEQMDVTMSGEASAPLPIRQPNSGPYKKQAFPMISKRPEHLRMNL
Chain of PRPF4B (human) (Q13523 whole entry, looked up): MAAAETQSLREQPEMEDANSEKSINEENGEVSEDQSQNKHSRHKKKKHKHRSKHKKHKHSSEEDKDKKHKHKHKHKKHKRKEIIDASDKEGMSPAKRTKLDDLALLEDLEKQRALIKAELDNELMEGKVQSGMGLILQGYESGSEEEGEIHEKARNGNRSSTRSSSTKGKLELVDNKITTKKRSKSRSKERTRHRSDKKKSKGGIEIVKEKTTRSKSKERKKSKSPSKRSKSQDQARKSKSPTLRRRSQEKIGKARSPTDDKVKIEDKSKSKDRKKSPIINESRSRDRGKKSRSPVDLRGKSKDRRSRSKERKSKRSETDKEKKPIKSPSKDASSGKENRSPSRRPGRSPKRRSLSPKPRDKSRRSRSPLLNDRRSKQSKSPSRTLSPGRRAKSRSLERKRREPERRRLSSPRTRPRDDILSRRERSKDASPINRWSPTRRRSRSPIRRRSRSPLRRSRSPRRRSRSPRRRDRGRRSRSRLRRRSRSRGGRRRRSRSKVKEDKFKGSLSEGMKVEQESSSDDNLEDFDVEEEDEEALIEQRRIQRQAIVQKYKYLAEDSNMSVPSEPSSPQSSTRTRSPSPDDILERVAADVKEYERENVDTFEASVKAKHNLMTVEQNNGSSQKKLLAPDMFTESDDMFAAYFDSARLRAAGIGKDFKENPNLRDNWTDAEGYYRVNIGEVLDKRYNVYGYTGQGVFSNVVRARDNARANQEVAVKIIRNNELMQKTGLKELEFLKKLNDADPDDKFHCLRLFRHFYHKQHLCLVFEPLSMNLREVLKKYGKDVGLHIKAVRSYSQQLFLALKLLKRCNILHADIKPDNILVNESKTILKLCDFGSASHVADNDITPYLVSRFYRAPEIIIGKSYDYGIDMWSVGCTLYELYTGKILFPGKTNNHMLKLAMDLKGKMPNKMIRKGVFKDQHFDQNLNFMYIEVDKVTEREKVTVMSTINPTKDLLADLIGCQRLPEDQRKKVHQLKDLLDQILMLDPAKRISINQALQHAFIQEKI
Chain of MAP2K1 (human) (Q02750 whole entry, looked up): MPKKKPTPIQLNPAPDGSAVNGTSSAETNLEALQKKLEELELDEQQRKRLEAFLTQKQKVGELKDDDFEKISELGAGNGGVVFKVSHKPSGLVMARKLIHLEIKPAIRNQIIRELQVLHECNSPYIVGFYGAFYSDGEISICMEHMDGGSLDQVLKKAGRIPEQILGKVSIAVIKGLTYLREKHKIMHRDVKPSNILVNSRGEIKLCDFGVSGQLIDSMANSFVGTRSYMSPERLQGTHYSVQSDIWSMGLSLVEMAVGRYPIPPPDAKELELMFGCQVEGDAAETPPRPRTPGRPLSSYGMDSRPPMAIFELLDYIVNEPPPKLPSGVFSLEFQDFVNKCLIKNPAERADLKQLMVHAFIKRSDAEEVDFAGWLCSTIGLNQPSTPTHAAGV

`COc1cc(C(=O)N2CCC(N3CCN(C)CC3)CC2)ccc1Nc1ncc2c(n1)N(C)c1ccccc1C(=O)N2C` showed a kinase still bound, per cent of control [1] of 89%, a kinase still bound, per cent of control (ABL2 (human)) of 97% and a kinase still bound, per cent of control (CAMK1G (human)) of 74%. The residual activity (CDC2L2 (human)) was 82%, the kinase still bound, per cent of control (CHUK (human)) was 100% and the kinase still bound, per cent of control (DAPK1 (human)) was 73%. It also gave a kinase still bound, per cent of control (DCLK3 (human)) of 90%, a kinase still bound, per cent of control [2] of 100% and a kinase still bound, per cent of control [3] of 88%. The kinase still bound, per cent of control (ERBB3 (human)) was 100%, the kinase still bound, per cent of control (ERN1 (human)) was 59% and the kinase still bound, per cent of control (FGFR1 (human)) was 86%. The kinase still bound, per cent of control (GSK3A (human)) was 100%, the kinase still bound, per cent of control [4] was 100% and the kinase still bound, per cent of control (MAP2K1 (human)) was 100%. It also gave a kinase still bound, per cent of control (MAP3K2 (human)) of 97%, a kinase still bound, per cent of control (MAPK4 (human)) of 100% and a kinase still bound, per cent of control (MARK2 (human)) of 100%. It also gave a kinase still bound, per cent of control (MST1R (human)) of 98%, a kinase still bound, per cent of control (NEK2 (human)) of 100% and a kinase still bound, per cent of control (NEK7 (human)) of 100%. For the same compound, the kinase still bound, per cent of control (OXSR1 (human)) was 88%, the kinase still bound, per cent of control (PIM1 (human)) was 100% and the kinase still bound, per cent of control (PRKCD (human)) was 75%. For the same compound, the kinase still bound, per cent of control (PRKD3 (human)) was 42%, the kinase still bound, per cent of control (PRKG2 (human)) was 74% and the kinase still bound, per cent of control (PRPF4B (human)) was 93%. For the same compound, the kinase still bound, per cent of control (PTK2 (human)) was 34%, the kinase still bound, per cent of control (PTK6 (human)) was 58% and the kinase still bound, per cent of control (ROCK1 (human)) was 100%. For the same compound, the kinase still bound, per cent of control (RPS6KA1 KD2 (human)) was 10%, the kinase still bound, per cent of control (RPS6KA4 KD1 (human)) was 100% and the kinase still bound, per cent of control (RPS6KB1 (human)) was 100%. It also gave a kinase still bound, per cent of control (SLK (human)) of 100%, a kinase still bound, per cent of control (SRC (human)) of 100% and a kinase still bound, per cent of control (STK4 (human)) of 100%. It also gave a kinase still bound, per cent of control (TNIK (human)) of 100%, a kinase still bound, per cent of control (TXK (human)) of 91% and a kinase still bound, per cent of control (TYRO3 (human)) of 100%. It also gave a kinase still bound, per cent of control (ULK2 (human)) of 67% and a kinase still bound, per cent of control (YES1 (human)) of 100%.
